This is an account of results in ChEMBL document CHEMBL1145576, “Synthesis and structure-activity relationship of aminopyrimidine IKK2 inhibitors” (Bioorg Med Chem Lett, 2008).

Assay [1] deals with T1, Inhibitor of nuclear factor kappa-B kinase subunit beta (Homo sapiens, UniProt O14920).
T1 sequence (O14920 whole entry): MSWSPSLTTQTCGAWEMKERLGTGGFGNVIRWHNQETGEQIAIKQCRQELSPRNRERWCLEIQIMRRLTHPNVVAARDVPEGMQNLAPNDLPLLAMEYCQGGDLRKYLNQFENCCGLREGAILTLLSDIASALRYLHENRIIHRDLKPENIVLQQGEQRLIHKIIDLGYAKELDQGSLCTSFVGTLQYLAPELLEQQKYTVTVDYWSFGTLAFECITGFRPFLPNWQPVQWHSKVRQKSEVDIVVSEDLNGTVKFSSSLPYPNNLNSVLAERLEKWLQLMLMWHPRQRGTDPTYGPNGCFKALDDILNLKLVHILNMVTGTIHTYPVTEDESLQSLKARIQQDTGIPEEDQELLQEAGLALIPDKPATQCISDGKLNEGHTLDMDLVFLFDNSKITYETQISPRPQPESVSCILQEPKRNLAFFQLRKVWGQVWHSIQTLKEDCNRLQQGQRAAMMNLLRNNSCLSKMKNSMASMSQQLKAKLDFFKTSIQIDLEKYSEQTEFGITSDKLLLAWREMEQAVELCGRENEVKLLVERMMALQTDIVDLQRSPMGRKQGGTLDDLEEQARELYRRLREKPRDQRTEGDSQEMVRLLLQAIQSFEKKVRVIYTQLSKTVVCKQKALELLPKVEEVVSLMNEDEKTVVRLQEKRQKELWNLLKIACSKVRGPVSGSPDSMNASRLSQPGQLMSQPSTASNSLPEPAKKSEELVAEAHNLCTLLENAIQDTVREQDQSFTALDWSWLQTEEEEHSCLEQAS
Briefly: Inhibition of IKK2.

Assay [2] in a line: Selectivity ratio of IC50 for IKK1 to IC50 for IKK2.
Assay [3] deals with T2, Inhibitor of nuclear factor kappa-B kinase subunit alpha (Homo sapiens) (UniProt O15111).
T2 sequence (whole entry): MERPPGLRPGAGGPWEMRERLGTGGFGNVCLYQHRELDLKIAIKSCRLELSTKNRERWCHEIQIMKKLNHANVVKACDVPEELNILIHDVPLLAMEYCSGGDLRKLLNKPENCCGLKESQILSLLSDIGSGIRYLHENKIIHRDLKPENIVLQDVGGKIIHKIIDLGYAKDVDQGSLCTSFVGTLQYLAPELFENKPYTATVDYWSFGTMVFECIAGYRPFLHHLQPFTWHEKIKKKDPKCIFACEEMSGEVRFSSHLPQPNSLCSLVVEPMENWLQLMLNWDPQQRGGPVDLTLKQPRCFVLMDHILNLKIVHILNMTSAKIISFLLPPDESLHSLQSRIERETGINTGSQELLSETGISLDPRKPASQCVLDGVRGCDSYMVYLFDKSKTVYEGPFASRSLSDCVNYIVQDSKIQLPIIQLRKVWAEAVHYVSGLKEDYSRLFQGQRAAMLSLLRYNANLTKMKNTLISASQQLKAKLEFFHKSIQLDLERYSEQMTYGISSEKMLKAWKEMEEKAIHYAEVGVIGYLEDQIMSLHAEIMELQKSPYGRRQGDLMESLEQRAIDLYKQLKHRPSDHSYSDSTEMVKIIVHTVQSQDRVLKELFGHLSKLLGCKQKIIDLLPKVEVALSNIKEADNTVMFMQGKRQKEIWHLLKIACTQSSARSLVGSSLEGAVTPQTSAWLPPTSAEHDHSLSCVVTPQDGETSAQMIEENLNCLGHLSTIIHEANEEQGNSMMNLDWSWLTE
Briefly: Inhibition of IKK1 at 10 uM.

Assay [4] deals with T3, Inhibitor of nuclear factor kappa-B kinase subunit alpha (Homo sapiens, UniProt O15111).
T3 sequence (O15111 whole entry): T2 sequence (whole entry)
Kind of assay: Inhibition of IKK1.

Assay [5] is described as follows: Selectivity ratio of IC50 for E-selectin promoter transfected in human A549 cells to IC50 for IKK2. It is filed as functional.
In assay [6] the test system is A549. Kind of assay: Inhibition of TNF-alpha-stimulated E-selectin promoter transfected human A549 cells after 6 hrs. To be noted: A549, 6 h. It is filed as functional, cell-based.

pIC50: −log10 of the molar value.

Usually pIC50 stands for −log10 of the IC50, conventionally taken in molar units. By inhibition is commonly meant the percentage by which the read-out fell short of the control. The low end stands for little suppression, the high end for strong suppression.

Take `O=S(=O)(Nc1ccc(-c2ccnc(Nc3ccc4ncsc4c3)n2)cc1)c1cc(Cl)c(Cl)s1`: the pIC50 in assay [1] was 5.05.
Turning to `O=S(=O)(c1ccccc1)c1ccc(-c2ccnc(Nc3ccc4ncsc4c3)n2)cc1`, the Ratio IC50 in assay [2] is greater than 22. This compound also gave a negative-log IC50 (pIC50) in assay [1] of 6.36. In assay [3], the inhibition is 24%.
Regarding `COc1cccc2nc(-c3cccs3)nc(NN3C(=O)C=C(C)C3=O)c12` [AS-602868], the pIC50 in assay [4] is 4.89.
With `c1cn(-c2ccc(-c3ccnc(Nc4ccc5ncsc5c4)n3)cc2)cn1`, in assay [2], the Ratio IC50 was greater than 14. Also, in assay [1], the pIC50 was 6.15. In assay [3], this compound came in with an inhibition of 34%.
For `CN1CCN(c2ccc(-c3ccnc(Nc4ccc5ncsc5c4)n3)cc2)CC1`, the figures for the Ratio IC50 in assay [2] and in assay [5] were 6 and 3.1, respectively. Moreover, the values for the pIC50 in assay [4], in assay [1] and in assay [6] were 5.58, 6.39 and 5.90, respectively.
With `CN(CCOc1ccc(-c2ccnc(Nc3ccc4ncsc4c3)n2)cc1)c1ccccn1`, the pIC50 in assay [1] is 5.40.
On to `O=C(Nc1ccc(-c2ccnc(Nc3ccc4ncsc4c3)n2)cc1)C1CCNCC1`, for which the pIC50 in assay [4] is 5.72; in assay [1], 6.40; in assay [6], 5.42. Also, the “Ratio IC50” value in assay [5] was 9.5.
`Cc1ccc(S(=O)(=O)Nc2ccc(-c3ccnc(Nc4ccc5ncsc5c4)n3)cc2)cc1` showed a pIC50 in assay [1] of 5.82.
In the case of `O=S(=O)(c1ccc(-c2ccnc(Nc3ccc4ncsc4c3)n2)cc1)N1CCNCC1`, the Ratio IC50 in assay [2] was found to be 13; in assay [5] it was 89. Besides, the pIC50 was 6.07 in assay [4], 7.19 in assay [1] and 5.24 in assay [6].
Taken in the same sequence, the figures for `O=S(=O)(Nc1ccc(-c2ccnc(Nc3ccc4ncsc4c3)n2)cc1)c1ccc2nonc2c1` were 21, 77, 5.32, 6.64 and 4.75.
For the compound `O=S(=O)(c1ccc(-c2ccnc(Nc3ccc4ncsc4c3)n2)cc1)N1CCSCC1`, the pIC50 in assay [4] was 5.30; in assay [1], 6.60; in assay [6], 6.54. In assay [5], the “Ratio IC50” value is 1.2.
On to `O=S(=O)(c1ccc(-c2ccnc(Nc3ccc4ncsc4c3)n2)cc1)N1CCCC1`, for which the “Ratio IC50” value in assay [5] was 2.8. Moreover, the pIC50 was 6.27 in assay [1] and 5.82 in assay [6]. Besides, in assay [3], the inhibition is 48%.
The compound `c1cnc(Oc2ccc(-c3ccnc(Nc4ccc5ncsc5c4)n3)cc2)nc1` gave a pIC50 in assay [1] of 5.44.
On to `O=S(=O)(c1ccc(-c2ccnc(Nc3ccc4ncsc4c3)n2)cc1)N1CCCCC1`, for which the Ratio IC50 in assay [2] was greater than 17; in assay [5], 3.5. The pIC50 in assay [1] is 6.22; in assay [6] it was 5.68. The inhibition in assay [3] was determined as 30%.
Take `NCCC(=O)Nc1ccc(-c2ccnc(Nc3ccc4ncsc4c3)n2)cc1`: the Ratio IC50 in assay [2] is 3. In addition, the pIC50 was 6.14 in assay [4] and 6.57 in assay [1].
With `c1ccc(Oc2ccc(-c3ccnc(Nc4ccc5ncsc5c4)n3)cc2)cc1`, in assay [1], the pIC50 is 5.18.
Regarding `O=S(=O)(c1ccc(-c2ccnc(Nc3ccc4ncsc4c3)n2)cc1)N1CCOCC1`, the pIC50 is 5.17 in assay [4], 6.42 in assay [1] and 5.74 in assay [6]. The “Ratio IC50” value in assay [5] is 4.8.
As for `O=S(=O)(Nc1ccc(-c2ccnc(Nc3ccc4ncsc4c3)n2)cc1)c1ccc(Cl)cc1`, in assay [2], the Ratio IC50 is 3. The pIC50 in assay [4] is 5.52; in assay [1], 6.00.
Taken in the same sequence, the figures for `O=C(Nc1ccc(-c2ccnc(Nc3ccc4ncsc4c3)n2)cc1)C1CCCN1` (stereo unspecified) were 1, 6.84 and 6.89.
Consider `O=c1ccn(-c2ccc(-c3ccnc(Nc4ccc5ncsc5c4)n3)cc2)cc1`, for which the Ratio IC50 in assay [2] is greater than 4. Also, in assay [1], the pIC50 is 5.60. The inhibition in assay [3] amounted to 14%.
Regarding `CN(C)S(=O)(=O)c1ccc(-c2ccnc(Nc3ccc4ncsc4c3)n2)cc1`, the Ratio IC50 in assay [2] was greater than 24; in assay [5], 4.7. Also, the pIC50 in assay [1] is 6.39; in assay [6], 5.72. Also, the inhibition in assay [3] is 28%.
`COc1ccc(S(=O)(=O)Nc2ccc(-c3ccnc(Nc4ccc5ncsc5c4)n3)cc2)cc1` gave a pIC50 in assay [1] of 5.05.
